Test results published in publication PMC3927586, “Protein kinase C-delta inactivation inhibits the proliferation and survival of cancer stem cells in culture and in vivo” (BMC Cancer, 2014).
“And” between values parts separate entries of the source, which are not always exact repeats. Equal entries are not always repeated. Where two headings read alike, the source gives them in different places.

Key:
[1] = biological target: T1, recombinant PKCδ (Homo sapiens, UniProt Q05655); assay: PKC kinase activity assay (Z-lyte), PKCδ; assay type: biochemical; conditions: for PKCδ/PKCα Selectivity ratio: PKCδ versus PKCα in vitro
T1 construct: purchased Invitrogen
T1 sequence (Q05655 whole entry): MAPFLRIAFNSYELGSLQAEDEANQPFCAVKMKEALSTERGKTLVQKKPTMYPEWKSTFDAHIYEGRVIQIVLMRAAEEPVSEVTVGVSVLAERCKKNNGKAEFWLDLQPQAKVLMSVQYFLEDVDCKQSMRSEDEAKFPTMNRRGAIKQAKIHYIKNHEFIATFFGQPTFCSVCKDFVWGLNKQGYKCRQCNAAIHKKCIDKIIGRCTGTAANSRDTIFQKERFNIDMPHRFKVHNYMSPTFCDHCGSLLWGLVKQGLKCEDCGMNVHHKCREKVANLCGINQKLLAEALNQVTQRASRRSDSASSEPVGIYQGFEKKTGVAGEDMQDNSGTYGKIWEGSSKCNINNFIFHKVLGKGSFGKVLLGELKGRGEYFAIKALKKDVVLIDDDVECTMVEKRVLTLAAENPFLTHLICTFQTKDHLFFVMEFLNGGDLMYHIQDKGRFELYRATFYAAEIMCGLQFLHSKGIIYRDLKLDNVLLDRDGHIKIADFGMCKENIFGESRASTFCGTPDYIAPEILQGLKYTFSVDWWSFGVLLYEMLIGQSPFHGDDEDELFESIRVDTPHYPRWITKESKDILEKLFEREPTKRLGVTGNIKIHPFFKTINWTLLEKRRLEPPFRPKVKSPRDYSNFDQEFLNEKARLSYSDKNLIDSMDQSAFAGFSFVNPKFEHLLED
Experimental: Assays were carried out using recombinant PKCδ or PKCα, (Invitrogen) and the Z-lyte Kinase Assays (Invitrogen) with a “PKC-kinase-specific” peptide substrate. FRET interactions produce a change in fluorescence (ex455/ex520) upon phosphorylation. The kit was used according to the manufacturer’s instructions.

[2] = tested on: PCSC cells; assay: Cytotoxicity (LDH release) in pancreatic cancer stem cells; assay type: cell-based, human
Experimental: LDH release was assessed by spectrophotometrically measuring the oxidation of NADH in both the cells and media. Cells were seeded in 24-well plates, and exposed to PKCδ inhibitors or vehicle. After different times of exposure, cytotoxicity was quantified by a standard measurement of LDH release with the use of the LDH assay kit (Roche Molecular Biochemicals) according to the manufacturer’s protocol. Briefly, total culture medium was cleared by centrifugation. For assay of released LDH, supernatants were collected. To assess total LDH in cells, Triton X-100 was added to vehicle (control) wells to release intracellular LDH. LDH assay reagent was added to lysates or supernatants and incubated for up to 30 min at room temperature in dark, the reaction was stopped, and the absorbance was measured at 490 nm. The percentage of LDH release was then calculated as the LDH in the supernatants as a fraction of the total LDH.
Figure 2 Effects of PKCδ inhibitors on human cancer stem cells. (A) PCSC and PrCSC cells at 80% confluence were exposed to rottlerin. DMSO served as vehicle control (Vehicle). After 24 and 72 hr of exposure, cell mass was evaluated by MTT assay. Control values were normalized to 100%. p values for comparison between treatments reached significance at 24 hr of exposure (p≤0.01) for both cell types, and remained significant at 72 hr. (B) PCSC and PrCSC cells at 50% confluence were exposed to rottlerin. Cytotoxicity was evaluated by LDH-release assay. Total maximal LDH release was assigned the arbitrary value of 100% (Control). p values for comparison between effects of treatments on LDH release reached significance at 24 hr of exposure (p<0.01) for both cell types, and remained significant at 72 hr. (C) Effects of PKCδ inhibitor on tumor cell clonogenic capacity. PCSC were exposed to vehicle or rottlerin (10 μM) for 6, 18, 24, or 48 hr. Viable cells were enumerated and re-plated in media without inhibitor, and colony numbers were quantitated 15 days later. p values for comparison of treatment effects on clonogenic capacity reached significance (p=0.005) at 18 hr of exposure and remained significant for all subsequent exposure times. The insert is a photograph of stained colonies on plates. (D) Structures of staurosporine, rottlerin, second-generation (KAM1) and third-generation (BJE6-106) derivatives. (E) PCSC and PrCSC cells at 50% confluence were exposed to KAM1 at the indicated concentrations. DMSO served as vehicle control (Vehicle). Cytotoxicity was evaluated by LDH-release assay, as in panel B. p values for comparison between treatment effects on LDH release reached significance at 24 hr of exposure to 2.5 μM KAM1 for PCSC cells and at 10 μM for PrCSC (p≤0.01), and remained significant at 72 hr for all concentrations of KAM1. Error bars represent SEM.

[3] = tested on: MCF7 spheroids; assay: Tumor spheroid formation, MCF7; assay type: cell-based; conditions: Homo sapiens, 96 hr, read-out: inhibition of growth of MCF7 spheroids
Experimental: (§1) Tumor self-renewing and anchorage-independent spheroids were obtained by culturing breast cancer cells MCF7, Hs587T and MDA231; melanoma cells SBcl2 and FM6; human breast cancer stem cells and pancreatic cancer stem cells in stem cell-selective conditions according to the manufacturer’s instructions (StemCell Technologies, Tukwila, WA). Briefly, cancer and cancer stem cells were propagated in 6-well ultra-low adherent plates (Corning) in Complete MammoCult Medium (Human) by adding 50 mL of MammoCult Proliferation Supplements to 450 mL of MammoCult Basal Medium (StemCell Technologies). The following were added to obtain Complete MammoCult Medium: 4 ug/mL Heparin (StemCell Technologies), 0.48 μg/mL hydrocortisone (StemCell Technologies), 200 U penicillin/ml; and 200 μg streptomycin/ml (Invitrogen).
(§2) Figure 4 Effects of PKCδ inhibitors on human tumor cell spheroid formation. […] Tumor spheroids and adherent cells were collected at 96 hr, stained for CD24 and CD44, and analyzed by flow cytometry. […] After 24, 48 and 72 hr of exposure, cell mass was evaluated by MTT assay. […] Viable cells were enumerated and re-plated in media without BJE6-206, and spheroid numbers were quantitated 96 hr later. p values for comparison between vehicle and BJE6-106 effects on spheroid number were significant after 6 hr of exposure (p≤0.02), and remained significant at all time points thereafter. […]

[4] = tested on: pancreatic cancer stem cells (PCSC); assay: Tumor spheroid formation, PCSC; assay type: cell-based, human; conditions: added to culture medium, 96 hr, p≤0.001
Experimental: as §1, §2

[5] = tested on: Panc1; assay: Tumor spheroid growth, Panc1 pancreatic cancer; assay type: cell-based, human; conditions: p < 0.001
[6] = tested on: DU145; assay: Tumor spheroid growth, DU145 prostate cancer; assay type: cell-based, human; conditions: p < 0.001
[7] = tested on: PC3; assay: Tumor spheroid growth, PC3 prostate cancer; assay type: cell-based, human; conditions: p < 0.001
[8] = Drug-like properties: bioavailability; conditions: in vivo delivery
[9] = in vitro kinase assay, read-out: PKCδ IC50

PKCδ/PKCα Selectivity ratio [1]	PKCδ/PKCα Selectivity ratio ([1]; listed as 3)	Structure (SMILES)	IC50 [1, 9]	increase in potency compared to rottlerin, LDH release ([2]; data not shown)	inhibition at 1 µM ([3]; BJE6-106 at 1 μM) [%]	effect on formation of spheroids, PCSC [4]	inhibition of tumor spheroid growth, Panc1 ([5]; BJE6-106 at 0.5-1.0 μM) [%]	inhibition of tumor spheroid growth, DU145 ([6]; BJE6-106 at 0.5-1.0 μM) [%]	inhibition of tumor spheroid growth, PC3 ([7]; BJE6-106 at 0.5-1.0 μM) [%]	bioavailability [8]	IC50 ([1]; PKCδ IC50, in vitro kinase assay) [nM]	cytotoxicity in PCSC (LDH release) ([2]; dose-dependent, 24 and 72 hr)	inhibition at 10 µM ([3]; rottlerin at 10 μM) [%]	inhibition at 10 µM ([5]; Homo sapiens, PANC-1, rottlerin at 10 μM) [%]	inhibition at 10 µM ([6]; Homo sapiens, DU-145, rottlerin at 10 μM) [%]	inhibition at 10 µM ([7]; Homo sapiens, PC-3, rottlerin at 10 μM) [%]
approximately 1000 fold	1000-fold	CC1(C)C=Cc2cc(CCn3c4ccccc4c4ccccc43)cc(C=O)c2O1 [BJE6-106, 6-(2-(9H-carbazol-9-yl)ethyl)-2,2-dimethyl-2H-chromene-8-carbaldehyde]	~50 nM and 50 nM	greater than 10 fold	> 90	very efficiently inhibited	> 99	> 98	> 96	poorly bioavailable	–	–	–	–	–	–
–	–	CC(=O)c1c(O)c(C)c(O)c(Cc2c(O)c3c(c(C(=O)/C=C/c4ccccc4)c2O)OC(C)(C)C=C3)c1O [rottlerin, Rottlerin, reference compound]	3000 nM	–	–	very efficiently inhibited	–	–	–	readily bioavailable	~5000	induced cytotoxicity	> 90	> 99	> 98	> 96
